Measurements published in BindingDB's records for doi:10.1021/jm030008u (Nida-Irp, 2003).

Experiment: Binding affinity against Sigma receptor type 1 was determined by the displacement of [3H]pentazocine radioligand

## C[C@@H]1CN(CCCN(c2ccccc2)c2ccccc2)C[C@@H](C)N1 [[3-((3R,5R)-3,5-Dimethyl-piperazin-1-yl)-propyl]-diphenyl-amine]
  Ki: 138 nM

## C[C@@H]1CN(CCCN(c2ccc(F)cc2)c2ccc(F)cc2)C[C@@H](C)N1 [[3-((3R,5R)-3,5-Dimethyl-piperazin-1-yl)-propyl]-bis-(4-fluoro-phenyl)-amine]
  Ki: 124 nM

## C[C@@H]1CN(CCCn2c3ccccc3c3cc(N)ccc32)C[C@@H](C)N1 [9-[3-(3,5-Dimethyl-piperazin-1-yl)-propyl]-9H-carbazol-3-ylamine]
  Ki: 5720 nM

## Fc1ccc(N(CCCN2CCN(CCCc3ccccc3)CC2)c2ccc(F)cc2)cc1 [Bis-(4-fluoro-phenyl)-{3-[4-(3-phenyl-propyl)-piperazin-1-yl]-propyl}-amine]
  Ki: 66.2 nM

## C[C@@H]1CN(CCCn2c3ccccc3c3cc([N+](=O)[O-])ccc32)C[C@@H](C)N1 [9-[3-(3,5-Dimethyl-piperazin-1-yl)-propyl]-3-nitro-9H-carbazole]
  Ki: 596 nM

## C[C@@H]1CN(CCCN(c2ccc(F)cc2)c2ccc(F)cc2)C[C@@H](C)N1CCc1ccc(Cl)c(Cl)c1 [(3-{(3R,5R)-4-[2-(3,4-Dichloro-phenyl)-ethyl]-3,5-dimethyl-piperazin-1-yl}-propyl)-bis-(4-fluoro-phenyl)-amine]
  Ki: 32.5 nM

## C[C@@H]1CN(CCCn2c3ccc(Br)cc3c3cc(Br)ccc32)C[C@@H](C)N1 [3,6-Dibromo-9-[3-(3,5-dimethyl-piperazin-1-yl)-propyl]-9H-carbazole]
  Ki: 4420 nM

## Fc1ccc(N(CCCN2CCN(Cc3ccccc3)CC2)c2ccc(F)cc2)cc1 [N-(3-(4-benzylpiperazin-1-yl)propyl)-4-fluoro-N-(4-fluorophenyl)benzenamine]
  Ki: 13.1 nM

## C[C@@H]1CN(CCCN(c2ccccc2)c2ccccc2)C[C@@H](C)N1CCCc1ccccc1 [{3-[3,5-Dimethyl-4-(3-phenyl-propyl)-piperazin-1-yl]-propyl}-diphenyl-amine]
  Ki: 97.2 nM

## C[C@@H]1CN(CCCN(c2ccccc2)c2ccccc2)C[C@@H](C)N1CCc1ccc(Cl)c(Cl)c1 [(3-{(3R,5R)-4-[2-(3,4-Dichloro-phenyl)-ethyl]-3,5-dimethyl-piperazin-1-yl}-propyl)-diphenyl-amine]
  Ki: 29.6 nM

## C[C@@H]1CN(CCCN(c2ccc(F)cc2)c2ccc(F)cc2)C[C@@H](C)N1CCCc1ccccc1 [{3-[3,5-Dimethyl-4-(3-phenyl-propyl)-piperazin-1-yl]-propyl}-bis-(4-fluoro-phenyl)-amine]
  Ki: 11.1 nM

## Fc1ccc(N(CCCN2CCNCC2)c2ccc(F)cc2)cc1 [Bis-(4-fluoro-phenyl)-(3-piperazin-1-yl-propyl)-amine]
  Ki: 1390 nM

## C[C@@H]1CN(CCCn2c3ccccc3c3ccccc32)C[C@@H](C)N1CCCc1ccccc1 [9-{3-[3,5-Dimethyl-4-(3-phenyl-propyl)-piperazin-1-yl]-propyl}-9H-carbazole]
  Ki: 104 nM

## C[C@@H]1CN(CCCn2c3ccccc3c3ccccc32)C[C@@H](C)N1C [9-[3-(3,4,5-Trimethyl-piperazin-1-yl)-propyl]-9H-carbazole]
  Ki: 552 nM

## CCN(CC)CCOCCOC(=O)C1(c2ccccc2)CCCC1 [SMR000326757]
  Ki: 19.5 nM
